# Source: ChEMBL document CHEMBL1134826, “Pyrrolidine inhibitors of human cytosolic phospholipase A2. Part 2: synthesis of potent and crystallized 4-triphenylmethylthio derivative 'pyrrophenone'” (Bioorg Med Chem Lett, 2001)
# What was measured:
# Homo sapiens [1] = species: Homo sapiens; assay: Concentration required to inhibit production of PGE-2 from whole blood stimulated with A-23187; assay type: functional, organism-based
# Homo sapiens [2] = species: Homo sapiens; assay: Concentration required to inhibit production of LDH from whole blood stimulated with A-23187; assay type: functional, organism-based
# THP-1 [3] = assay: Concentration required to inhibit production of LTC4 from THP-1 cells stimulated with A-23187; assay type: functional, cell-based; details: Homo sapiens
# Homo sapiens [4] = species: Homo sapiens; assay: Concentration required to inhibit production of arachidonic acid from whole blood stimulated with A-23187; assay type: functional, organism-based
# Homo sapiens [5] = species: Homo sapiens; assay: Concentration required to inhibit production of LTB4 from whole blood stimulated with A-23187; assay type: functional, organism-based
# THP-1 [6] = assay: Concentration required to inhibit production of arachidonic acid from THP-1 cells stimulated with A-23187; assay type: functional, cell-based; details: Homo sapiens
# Homo sapiens [7] = species: Homo sapiens; assay: Concentration required to inhibit production of TXB2 from whole blood stimulated with A-23187; assay type: functional, organism-based
# THP-1 [8] = assay: Concentration required to inhibit production of PGE-2 from THP-1 cells stimulated with A-23187; assay type: functional, cell-based; details: Homo sapiens
IC50 (Homo sapiens [1]),IC50 (Homo sapiens [2]),IC50 (THP-1 [3]),IC50 (Homo sapiens [4]),IC50 (Homo sapiens [5]),IC50 (THP-1 [6]),IC50 (Homo sapiens [7]),Structure (SMILES),IC50 (THP-1 [8])
> 10 µM,> 10 µM,41 µM,> 10 µM,> 10 µM,86 µM,> 10 µM,CCCCC/C=C\C/C=C\C/C=C\C/C=C\CCCC(=O)C(F)(F)F [ARACHIDONYL TRIFLUOROMETHYLKETONE],–
0.26 µM,> 10 µM,> 10 µM,> 10 µM,> 10 µM,> 10 µM,0.36 µM,COc1ccc2c(c1)c(CC(=O)O)c(C)n2C(=O)c1ccc(Cl)cc1 [INDOMETHACIN],–

Structure (SMILES),IC50 (Homo sapiens [1]),IC50 (Homo sapiens [2]),IC50 (THP-1 [3]),IC50 (Homo sapiens [4]),IC50 (Homo sapiens [5]),IC50 (THP-1 [6]),IC50 (Homo sapiens [7]),IC50 (THP-1 [8])
CCCCC/C=C\C/C=C\C/C=C\C/C=C\CCCC(=O)O [ARACHIDONIC ACID],> 10 µM,> 10 µM,0.0047 µM,> 10 µM,0.94 µM,40 µM,> 10 µM,0.18 µM
